Measured values reported in patent US20230293644A1, “ANTI-INFLAMMATORY PEPTIDES AND COMPOSITION COMPRISING THE SAME” (Gemvax & KAEL Co., Ltd., priority 2012, published 2023).

Columns and labels:
TNF-α [1] = assay: Screening of TNF-α level in PMA-differentiated THP-1 cell line after LPS; assay type: cell-based, human; details: 1 µM peptide, one hour; LPS 10 ng/ml
Experimental: Experiment was carried out using THP-1 cell line (American Type Culture Collection (ATCC), Manassas, VA, USA) which is human acute monocytic leukemia.
THP-1 cells were incubated to reach the number of 1 × 10^5 cells per well in a 96-well plate with RPMI 1640 medium for 24 hrs, followed by addition of 100 uM of PMA (phorbol 12-myristate 13-acetate) for the differentiation into macrophage. After differentiation of THP-1 into macrophage by PMA for a day, LPS was treated for 2 hrs and washed off. Starvation for an hour and PEP1 treatment followed.
THP-1 cell differentiated by PMA was treated with LPS (lipopolysaccharide; 10 ng/ml, Sigma) for 2 hours, followed by 2 times washes with PBS. To the cells, OPTI-MEM culture medium was added to induce cell starvation for an hour, and 1 µM of 179 peptides was taken out and incubated for an hour. After incubation, TNF-α level was measured by using the ELISA kit and the peptides which reduce the TNF-α level were screened (FIG. 24 to FIG. 46).

TNF-α [2] = assay: Screening of TNF-α inhibitory effect, LPS-stimulated PBMC-derived monocytes (Example 2); assay type: cell-based, human; details: 4 uM peptide, 2 hrs, LPS 10 ng/ml; for TNF-α inhibiting effect compared to the group treated with LPS and estrogen: estrogen 20 nM
Experimental: PBMC (peripheral blood mononuclear cells) layer was separated from blood samples (50 ml) collected in healthy subjects using Biocoll Separating Solution (Biochrom AG, Berlin, Germany). The collected PBMC were enriched in RPMI 1640 medium containing 20% human serum for 30 mins, and then transferred to 100-mm polystyeren cell culture plate coated with human serum for incubation for 2 hrs at 37° C., 5% CO^2 incubator. Monocytes were detached from the bottom of the plate using cold PBS, and incubated to reach the number of 1 × 10^5 cell/well in 96-well plate with RPMI 1640 medium (supplemented with penicillinstreptomycin; […], human serum; 20%) over night.
ELISA was performed to find out how the peptides of the PEP RIA series influence TNF-α level. PBMC-derived monocytes were incubated to reach the number of 1 × 10^5 cells per well in a 96-well plate and then treated with LPS (lipopolysaccharide; 10 ng/ml, Sigma) for 2 hours. To the monocytes that were washed three times with PBS, OPTI-MEM culture medium was added to induce cell starvation for an hour, 4 µM of the peptide was taken out and incubated for 2 hours. There were three negative control groups. The first group was not treated with anything. The second group that was treated with estrogen (in this experiment, estradiol was used as a kind of estrogen). The third group was treated with LPS (10 ng/ml) or with LPS (10 ng/ml) as well as estrogen (20 nM). PEP1 that was confirmed to have TNF-α inhibiting activity was used as a positive control to measure TNF-α inhibiting activity. After incubation, TNF-α was measured by following the ELISA kit manual (R&D, Minneapolis, MN, USA). The details of quantification method can be found in Experiment 2.2 of Example 1.
Using the method stated above, Peptides with TNF-α inhibiting effect were screened. PBMC-derived monocytes were stimulated with LPS (10 ng/ml), which is endotoxin, for 2 hours and were induced to starve by adding OPTI-MEM for 1 hour. After that, 4 uM of 179 peptides were treated and incubated for 2 hrs. The amount of TNF-α in the cell culture medium was measured using ELISA, and the peptides with TNF-α inhibiting effect were screened by comparing to the negative and positive controls (FIG. 3 to FIG. 23).

Substance | expression level of TNF-α compared to group treated with LPS and estrogen (TNF-α [1]) | TNF-α level compared to control group treated only with LPS (TNF-α [1]) | TNF-α inhibiting effect compared to the control group treated with only LPS (TNF-α [2]) | TNF-α inhibiting effect compared to the group treated with LPS and estrogen (TNF-α [2])
HREARPALLTSRLRFIPK (listed as Homo sapiens) [SEQ ID NO: 3] | reduce the expression level of TNF-α |  |  | 
ALLTSRLR (listed as Homo sapiens) [SEQ ID NO: 107] |  | reduce the TNF- α level |  | 
EVRQHREARPALLTSRLRFIPKP (listed as Homo sapiens) [SEQ ID NO: 41] | reduce the expression level of TNF-α |  |  | 
EARPALLTSRLRFIPKPDGLRPIVNMDY (listed as Homo sapiens) [SEQ ID NO: 75] |  | reduce the TNF- α level |  | 
RQHREARPALLTSRLRFIPK (listed as Homo sapiens) [SEQ ID NO: 5] |  | reduce the TNF- α level |  | 
EVRQHREARPALLTSRLRFIPK (listed as Homo sapiens) [SEQ ID NO: 7] |  | reduce the TNF- α level |  | 
VRQHREARPALLTSRLRFIPKPDGLR (listed as Homo sapiens) [SEQ ID NO: 36] |  | reduce the TNF- α level | showed TNF-α inhibiting effect | 
REARPALLTSRLRFIPK (listed as Homo sapiens) [SEQ ID NO: 2] | reduce the expression level of TNF-α |  |  | 
FIP [SEQ ID NO: 179] |  | reduce the TNF- α level |  | 
ARPALLTSRLR (listed as Homo sapiens) [SEQ ID NO: 112] | reduce the expression level of TNF-α |  | showed TNF-α inhibiting effect | 
EARPALLTSRLRFIP (listed as Homo sapiens) [SEQ ID NO: 78] |  | reduce the TNF- α level |  | 
AEVRQHREARPALLTSRLRFIPKPDG (listed as Homo sapiens) [SEQ ID NO: 54] |  |  | showed TNF-α inhibiting effect | showed TNF-α inhibiting effect
EVRQHREARPALLTSRLRFIPKPDGLRP (listed as Homo sapiens) [SEQ ID NO: 46] |  |  | showed TNF-α inhibiting effect | 
RQHREARPALLTSRLRFIPKPDG (listed as Homo sapiens) [SEQ ID NO: 27] |  |  | showed TNF-α inhibiting effect | showed TNF-α inhibiting effect
EARPALLTSRLRFIPKPDGLRPI (listed as Homo sapiens) [SEQ ID NO: 70] |  |  | showed TNF-α inhibiting effect | showed TNF-α inhibiting effect
LLTSRLR (listed as Homo sapiens) [SEQ ID NO: 149] |  |  | showed TNF-α inhibiting effect | showed TNF-α inhibiting effect
EARPALLTSRLRFIPKPDGLRPIVNMD (listed as Homo sapiens) [SEQ ID NO: 74] |  |  | showed TNF-α inhibiting effect | 
LTSRLR (listed as Homo sapiens) [SEQ ID NO: 156] |  |  | showed TNF-α inhibiting effect | showed TNF-α inhibiting effect
AEVRQHREARPALLTSRLRFIPKPDGL (listed as Homo sapiens) [SEQ ID NO: 55] |  |  | showed TNF-α inhibiting effect | showed TNF-α inhibiting effect
EARPALLTSR (listed as Homo sapiens) [SEQ ID NO: 83] |  |  | showed TNF-α inhibiting effect | showed TNF-α inhibiting effect

Substance | expression level of TNF-α compared to group treated with LPS and estrogen (TNF-α [1]) | TNF-α level compared to control group treated only with LPS (TNF-α [1]) | TNF-α inhibiting effect compared to the control group treated with only LPS (TNF-α [2]) | TNF-α inhibiting effect compared to the group treated with LPS and estrogen (TNF-α [2])
EARPALLTSRLRFIPKPD (listed as Homo sapiens) [SEQ ID NO: 66] |  |  | showed TNF-α inhibiting effect | 
SRLRFIPK (listed as Homo sapiens) [SEQ ID NO: 98] |  |  | showed TNF-α inhibiting effect | showed TNF-α inhibiting effect
EAR [SEQ ID NO: 90] |  |  | showed TNF-α inhibiting effect | showed TNF-α inhibiting effect
ARPA (listed as Homo sapiens) [SEQ ID NO: 119] |  |  | showed TNF-α inhibiting effect | 
ARPALLTSRLRF (listed as Homo sapiens) [SEQ ID NO: 111] |  |  | showed TNF-α inhibiting effect | 
ALLTSR (listed as Homo sapiens) [SEQ ID NO: 142] |  |  | showed TNF-α inhibiting effect | 
REARPALLTSRLRFIPKPD (listed as Homo sapiens) [SEQ ID NO: 19] |  |  | showed TNF-α inhibiting effect | showed TNF-α inhibiting effect
RFIP (listed as Homo sapiens) [SEQ ID NO: 177] |  |  | showed TNF-α inhibiting effect | 
HREARPALLTSRLRFIPKPDGL (listed as Homo sapiens) [SEQ ID NO: 30] | reduce the expression level of TNF-α |  |  | 
RELSEAEVRQHREARPALLTSRLRFIPK (listed as Homo sapiens) [SEQ ID NO: 13] |  |  | showed TNF-α inhibiting effect | 
SRLRFIP (listed as Homo sapiens) [SEQ ID NO: 165] |  |  | showed TNF-α inhibiting effect | showed TNF-α inhibiting effect
RQHREARPALLTSRLRFIPKP (listed as Homo sapiens) [SEQ ID NO: 25] |  |  | showed TNF-α inhibiting effect | showed TNF-α inhibiting effect
LSEAEVRQHREARPALLTSRLRFIPK (listed as Homo sapiens) [SEQ ID NO: 11] |  |  | showed TNF-α inhibiting effect | showed TNF-α inhibiting effect
EARPALLTSRLRFIPKPDGLRPIV (listed as Homo sapiens) [SEQ ID NO: 71] |  |  | showed TNF-α inhibiting effect | showed TNF-α inhibiting effect
EARPALLTSRLR (listed as Homo sapiens) [SEQ ID NO: 81] |  |  | showed TNF-α inhibiting effect | showed TNF-α inhibiting effect
VRQHREARPALLTSRLRFIPKPDG (listed as Homo sapiens) [SEQ ID NO: 34] |  |  | showed TNF-α inhibiting effect | showed TNF-α inhibiting effect
EVRQHREARPALLTSRLRFIPKPDG (listed as Homo sapiens) [SEQ ID NO: 43] |  |  | showed TNF-α inhibiting effect | showed TNF-α inhibiting effect
SRLR (listed as Homo sapiens) [SEQ ID NO: 168] |  |  | showed TNF-α inhibiting effect | 
LRF [SEQ ID NO: 176] |  |  | showed TNF-α inhibiting effect | 
